Experimental data from US4011221A, “S-Inosylcysteine and a process for producing the same” (Funai Pharmaceutical Industries, Ltd., priority 1974, dated 1977).

Assays:
[1] = test system: chick embryo heart cells; test: Effect on proliferation of chick embryo heart cells in the presence of a growth inhibitor, KCN (Experiments 3 and 4); format: cell-based; settings: KCN 1.7 μg per ml; for activity at 50 µg/mL / activity at 20 µg/mL: Gallus gallus; for activity at 20 µg/mL: 24 h
Procedure: After washing with calcium and magnesium-free phosphate buffered saline (PBS), the pieces of hearts were treated with a solution of 0.1% trypsin in PBS freed from calcium and magnesium ions, and the supernatant fraction was discarded. The residue was treated with a solution of 0.1% trypsin in PBS freed from calcium and magnesium ions, and the supernatant fractions containing isolated cells were collected. The procedure was repeated 3 times. The supernatant fractions were combined and diluted with cold culture medium containing 10% fetal calf serum, sodium penicillin G (100 units per ml) and sulfate streptomycin (1 μg per ml), and centrifuged at 150 xG. […] One ml of the suspension was poured into each of 28 culture tubes which were equally divided into 7 groups. The cells were cultured at 37° C in an incubator. After 1 day of incubation the culture medium of the tubes was removed and 1 ml of each culture medium containing compound shown in Table I was added thereto. After additional 3 days of incubation the culture medium was removed and the cells were then treated with 1 ml of 0.1 M citric acid containing 0.1% crystal violet. The number of cells was counted with a hemocytometer in quadruplicate after vigorous shaking. […] After 3 days of incubation, the culture medium was removed and 1 ml of each culture medium containing compounds shown in Table II was added thereto. After an additional 1 day of incubation the number of cells was counted. […] Method: The culture procedure for chick embryo heart cells was employed as described in Experiment 1. After one day of incubation, the culture medium was removed and 1 ml of each culture medium containing KCN (1.7 μg per ml) and compounds shown in Table III were added thereto.

[2] = test system: chick embryo heart cells; test: Effect on proliferation of chick embryo heart cells (Experiments 1 and 2); format: cell-based; settings: for Cell number ± S.E. / activity at 20 µg/mL: Experiment 2, 20 μg/ml; for Cell number ± S.E.: 1 day with compound after 3 days of incubation; for activity at 20 µg/mL: 24 h, read-out: Growth rate (%)
Procedure: A. Effect of S-inosylcysteine on proliferation of chick embryo heart cells.
(§1) Method: The hearts excised from 13-day-old chick embryos were cut into pieces 1 to 2 mm in diameter under sterile conditions. After washing with calcium and magnesium-free phosphate buffered saline (PBS), the pieces of hearts were treated with a solution of 0.1% trypsin in PBS freed from calcium and magnesium ions, and the supernatant fraction was discarded. The residue was treated with a solution of 0.1% trypsin in PBS freed from calcium and magnesium ions, and the supernatant fractions containing isolated cells were collected. The procedure was repeated 3 times. The supernatant fractions were combined and diluted with cold culture medium containing 10% fetal calf serum, sodium penicillin G (100 units per ml) and sulfate streptomycin (1 μg per ml), and centrifuged at 150 xG. The resulting pellet was washed twice with the culture medium and diluted cautiously with the same culture medium to give a suspension which contains 200,000 cells per ml. One ml of the suspension was poured into each of 28 culture tubes which were equally divided into 7 groups. The cells were cultured at 37° C in an incubator. After 1 day of incubation the culture medium of the tubes was removed and 1 ml of each culture medium containing compound shown in Table I was added thereto. After additional 3 days of incubation the culture medium was removed and the cells were then treated with 1 ml of 0.1 M citric acid containing 0.1% crystal violet. The number of cells was counted with a hemocytometer in quadruplicate after vigorous shaking.
(§2) Method: The culture procedure for chick embryo heart cells was employed as described in Experiment 1. After 3 days of incubation, the culture medium was removed and 1 ml of each culture medium containing compounds shown in Table II was added thereto. After an additional 1 day of incubation the number of cells was counted.

[3] = test system: pylorus ligation ulcer; test: Effect on pylorus ligation ulcer in rats (Experiments 6 and 7); format: in vivo, Male Wister rats; settings: Experiment 6, 50 mg/kg, p.o.; for Mean ulcer index ± S.E.: 10 hours from ligation
Procedure: a. Effect of S-inosylcysteine on pylorus ligation ulcer.
Method: Male Wister rats (Keari Gifu-Lab.), aged 7 weeks were used. After fasting for 48 hours, rats weighing 210 to 230 g were divided into 6 groups of 10 rats. The pylorus of stomach was ligated under light anesthesia with pentobarbital sodium (25 mg per kg, i.p.). Immediately after the ligation, a psysiological saline was orally administered to one group and a solution of each tested compound (50 mg per kg) was orally administered to the remaining 5 groups. After these rats were kept without food and water for 10 hours from the ligation, the stomach was removed under anesthesia with pentobarbital sodium (30 mg per kg, i.p.). The gastric contents were aspirated and the stomach was fixed by means of the injection of 10 ml of a 2% formalin solution into the lumen. The stomach was opened along its greater curvature. The severity of the lesion of the rumen, that is, the degree of ulcer was expressed as ulcer index according to the method of Yokotani (Folia pharmacol. Japon. 56, 1373, (1960). The results are shown in Table VI.
*Inhibition rate was calculated as follows: […]
Method: The same method as described in Experiment 6 was employed. The
effect of S-inosyl-L-cysteine
on pylorus ligation ulcer was examined with intramuscular administration.

[4] = test system: chick embryo heart cells; test: Effect on proliferation of chick embryo heart cells in the presence of 6-mercaptopurine (Experiment 5); format: cell-based; settings: Experiment 5, 20 μg/ml, 6-mercaptopurine 5 μg per ml; for activity at 20 µg/mL: Gallus gallus, 24 h
Procedure: as §1, §2
Method: Same as in Experiment 2 except that 6-mercaptopurine (5 μg per
ml) was added to each culture

[5] = its control = 100.0, read-out: Growth Rate (%)
[6] = simultaneous with Experiment 2, read-out: Growth rate (%) with respect to control of Table II
[7] = Experiment 4, 20 μg/ml, KCN control = 100.0, read-out: Growth rate (%)
[8] = Experiment 4, 20 μg/ml, simultaneous with Experiment 2, read-out: Growth rate (%) with respect to control of Table II

Row | SMILES | Cell number ± S.E. ([1]; Experiment 3, 50 μg/ml) | activity at 50 µg/mL ([1]; Experiment 3, 50 μg/ml, KCN control = 100.0, read-out: Growth Rate %) [%] | activity at 50 µg/mL ([1]; Experiment 3, 50 μg/ml, simultaneous with Experiment 1, read-out: Growth rate (%) with respect to control of Table I) [%] | Cell number + S.E. ([2]; Experiment 1, 50 μg/ml, 3 days incubation) | activity at 50 µg/mL ([2]; Gallus gallus, 72 h, Experiment 1, 50 μg/ml, control = 100.0, read-out: Growth rate %) [%] | Inhibition rate (%) of ulcer [3] [%] | Mean ulcer index ± S.E. [3] | Cell number ± S.E. [4] | activity at 20 µg/mL [4, 5] [%] | activity at 20 µg/mL [4, 6] [%] | Cell number ± S.E. ([1]; Experiment 4, 20 μg/ml) | activity at 20 µg/mL [1, 7] [%] | activity at 20 µg/mL [1, 8] [%] | Cell number ± S.E. [2] | activity at 20 µg/mL ([2]; Gallus gallus, control = 100.0) [%]
1 | OC[C@H]1O[C@@H](n2cnc3c(O)ncnc32)[C@H](O)[C@@H]1O [inosine] | 37.2 ± 4.4 ×10^4 cells | 116 | 73.1 | 54.1 ± 2.0 ×10^4 cells | 106 | – | – | – | – | – | – | – | – | – | –
2 | N[C@@H](CCSC[C@H]1O[C@@H](n2cnc3c(=O)[nH]cnc32)[C@H](O)[C@@H]1O)C(=O)O [S-inosyl-L-homocysteine] | – | – | – | – | – | 12 | 12.3 ± 1.1 | 65.3 ± 3.7 ×10^4 cells | 95.6 | 80 | 73.5 ± 1.7 ×10^4 cells | 112 | 90.1 | 78.2 ± 7.5 ×10^4 cells | 95.8
3 | Nc1ncnc2c1ncn2[C@@H]1O[C@H](CSC[C@H](N)C(=O)O)[C@@H](O)[C@H]1O [S-adenosyl-L-cysteine] | – | – | – | – | – | 13 | 12.1 ± 1.2 | 70.7 ± 1.2 ×10^4 cells | 104 | 86.6 | 64.2 ± 3.0 ×10^4 cells | 97.6 | 78.7 | 74.8 ± 4.7 ×10^4 cells | 91.7
4 | Nc1nc2c(ncn2[C@@H]2O[C@H](CSCC[C@H](N)C(=O)O)[C@@H](O)[C@H]2O)c(=O)[nH]1 [S-guanosyl-L-homocysteine] | – | – | – | – | – | -8 | 15.0 ± 1.8 | 72.3 ± 5.5 ×10^4 cells | 106 | 88.6 | 66.3 ± 1.4 ×10^4 cells | 101 | 81.3 | 69.2 ± 1.8 ×10^4 cells | 84.8
